Earlier results on six molecules are cited in patent publication US20070237796A1, “Stable High Pl Hydrogel Compositions” (priority 2003, published 2007).

SMILES strings stand for the structures.

Conditions in the first data set: not given
With `O=C[C@H](O)[C@@H](O)[C@@H](O)[C@H](O)CO` [Galactose], the pKa was 12.39.

As to `OC[C@H]1O[C@@H](O[C@H]2[C@H](O)[C@@H](O)C(O)O[C@@H]2CO)[C@H](O)[C@@H](O)[C@H]1O` (stereo partly drawn) [Lactose], the pKa is on record as 11.98.

As for `O=C[C@H](O)[C@@H](O)[C@H](O)CO` [Xylose], the pKa was 12.15.

On to `CO[C@H]1O[C@H](CO)[C@@H](O)[C@H](O)[C@H]1O` [α-Methyl glucoside], for which the pKa is 13.71.

Still in this data set, the particulars now being: secondary OH.
Turning to `OC[C@H]1O[C@@H]2O[C@H]3[C@H](O)[C@@H](O)[C@@H](O[C@H]4[C@H](O)[C@@H](O)[C@@H](O[C@H]5[C@H](O)[C@@H](O)[C@@H](O[C@H]6[C@H](O)[C@@H](O)[C@@H](O[C@H]7[C@H](O)[C@@H](O)[C@@H](O[C@H]8[C@H](O)[C@@H](O)[C@@H](O[C@H]1[C@H](O)[C@H]2O)O[C@@H]8CO)O[C@@H]7CO)O[C@@H]6CO)O[C@@H]5CO)O[C@@H]4CO)O[C@@H]3CO` [β-cyclodextrin], the pKa is on record as 12.20 (secondary OH).

Turning to `OC[C@H]1O[C@@H]2O[C@H]3[C@H](O)[C@@H](O)[C@@H](O[C@H]4[C@H](O)[C@@H](O)[C@@H](O[C@H]5[C@H](O)[C@@H](O)[C@@H](O[C@H]6[C@H](O)[C@@H](O)[C@@H](O[C@H]7[C@H](O)[C@@H](O)[C@@H](O[C@H]8[C@H](O)[C@@H](O)[C@@H](O[C@H]9[C@H](O)[C@@H](O)[C@@H](O[C@H]1[C@H](O)[C@H]2O)O[C@@H]9CO)O[C@@H]8CO)O[C@@H]7CO)O[C@@H]6CO)O[C@@H]5CO)O[C@@H]4CO)O[C@@H]3CO` [γ-cyclodextrin], the pKa is reported as 12.05 (secondary OH).
